Measured values: patent publication US20110190365A1, “Insecticidal 4-phenyl-1H-pyrazoles” (Bayer Crop Science AG, priority 2008, published 2011)

system: not listed separately; assay: log P by HPLC on a reversed-phase column (C18), EEC Directive 79/831 Annex V.A8; assay type: physicochemical; details: HCOOH
Protocol: The stated log P values were determined in accordance with EEC Directive 79/831 Annex V.A8 by HPLC (High Performance Liquid Chromatography) using a reversed-phase column (C18).

| Compound | log P (HCOOH) |
| --- | --- |
| Cc1cc(-n2nc(C(F)(F)F)c(-c3ccccc3Cl)c2N)ccc1C(=O)NCc1ncccn1 [I-A-Q2-414] | I-A-Q2-414: log P (HCOOH): 2.72 |
| Cc1cc(-n2nc(C(F)(F)F)c(-c3ccc(Cl)cc3Cl)c2N)ccc1C(=O)NC(C)c1ccccn1 (stereo not drawn) [I-A-Q2-412] | I-A-Q2-412: log P (HCOOH): 3.29 |
| Cc1cc(-n2nc(C(F)(F)F)c(-c3ccccc3C)c2N)ccc1C(=O)NCc1ccccn1 [I-A-Q2-359] | I-A-Q2-359: log P (HCOOH): 2.34 |
| Cc1cc(-n2nc(C(F)(F)F)c(-c3cc(Cl)cc(Cl)c3)c2N)ccc1C(=O)NC(Cc1ccccn1)C(F)(F)F (stereo not drawn) [I-A-Q2-049] | I-A-Q2-049: log P (HCOOH): 4.28 |
| Cc1cc(-n2nc(C(F)(F)Oc3ccc(Cl)cc3)c(-c3cc(Cl)cc(C(F)(F)F)c3)c2N)ccc1C(=O)NCC(F)(F)C(F)F [I-A-Q2-294] | I-A-Q2-294: log P (HCOOH): 4.95 |
| Cc1cc(-n2nc(C(F)(F)F)c(-c3cc(Cl)cc(Cl)c3)c2N)ccc1C(=O)NC(c1ccccn1)C(F)(F)F (stereo not drawn) [I-A-Q2-054] | I-A-Q2-054: log P (HCOOH): 2.31 |
| CCc1nn(-c2ccc(C(=O)NCC(F)(F)C(F)F)c(C)c2)c(N)c1-c1ccc(Cl)cc1 [I-A-Q2-339] | I-A-Q2-339: log P (HCOOH): 3.27 |
| Cc1cc(-n2nc(C(F)(F)F)c(-c3cc(Cl)cc(Cl)c3)c2N)ccc1C(=O)NCCc1ccccn1 [I-A-Q2-226] | I-A-Q2-226: log P (HCOOH): 2.50 |
| CC(C)(CC(F)(F)F)NC(=O)c1ccc(-n2nc(C(F)(F)F)c(-c3cc(Cl)cc(Cl)c3)c2N)cc1 [I-A-Q2-069] | I-A-Q2-069: log P (HCOOH): 4.83 |
| Cc1cc(-n2nc(C(F)(F)F)c(-c3cc(Cl)cc(Cl)c3)c2Br)ccc1C(=O)NCc1ccccn1 [I-A-Q2-023] | I-A-Q2-023: log P (HCOOH): 4.91 |
| Cc1cc(-n2nc(C)c(-c3c(F)cccc3Cl)c2N)ccc1C(=O)NCc1ccccn1 [I-A-Q2-374] | I-A-Q2-374: log P (HCOOH): 1.66 |
| CCC(NC(=O)c1ccc(-n2nc(C(F)(F)F)c(-c3cc(Cl)cc(Cl)c3)c2N)cc1)C(F)(F)F (stereo not drawn) [I-A-Q2-067] | I-A-Q2-067: log P (HCOOH): 4.65 |
| Cc1cc(-n2nc(C(F)(F)F)c(-c3ccccc3Cl)c2N)ccc1C(=O)NCc1ccccn1 [I-A-Q2-351] | I-A-Q2-351: log P (HCOOH): 2.27 |
| Nc1c(-c2ccc(Br)cc2)c(C(F)(F)F)nn1-c1ccc(C(=O)NCC(F)(F)F)cc1 [I-A-Q2-189] | I-A-Q2-189: log P (HCOOH): 3.53 |
| Cc1cc(-n2nc(C(F)(F)F)c(-c3cc(Cl)cc(Cl)c3)c2N)ccc1C(=O)NCc1ncc(C(F)(F)F)cc1Cl [I-A-Q2-230] | I-A-Q2-230: log P (HCOOH): 4.89 |
| Cc1cc(-n2nc(C(F)(F)F)c(-c3cc(Cl)cc(Cl)c3)c2N)ccc1C(=O)NC1CCN(C(=O)C2CC2)CC1 [I-A-Q2-203] | I-A-Q2-203: log P (HCOOH): 3.77 |
| Cc1nc(CNC(=O)c2ccc(-n3nc(C(F)(F)F)c(-c4cc(Cl)cc(Cl)c4)c3N)cc2C)cs1 [I-A-Q2-041] | I-A-Q2-041: log P (HCOOH): 3.94 |

| Compound | log P (HCOOH) |
| --- | --- |
| Cc1cc(-n2nc(C(F)(F)F)c(-c3cccc(Br)c3)c2N)ccc1C(=O)NC(C)c1ccccn1 (stereo not drawn) [I-A-Q2-418] | I-A-Q2-418: log P (HCOOH): 3.22 |
| Cc1nccc(CNC(=O)c2ccc(-n3nc(C(F)(F)F)c(-c4cc(Cl)cc(Cl)c4)c3N)cc2C)n1 [I-A-Q2-258] | I-A-Q2-258: log P (HCOOH): 3.47 |
| Cc1cc(-n2nc(C)c(-c3c(Cl)cccc3Cl)c2N)ccc1C(=O)NCC(F)(F)C(F)F [I-A-Q2-336] | I-A-Q2-336: log P (HCOOH): 2.76 |
| Cc1cc(-n2nc(C(F)(F)F)c(-c3c(F)cc(F)cc3F)c2N)ccc1C(=O)NCc1ccccn1 [I-A-Q2-350] | I-A-Q2-350: log P (HCOOH): 2.34 |
| Cc1cc(-n2nc(C)c(-c3c(F)cccc3Cl)c2N)ccc1C(=O)NCC(F)(F)C(F)F [I-A-Q2-334] | I-A-Q2-334: log P (HCOOH): 2.59 |
| Cc1cc(-n2nc(C(F)(F)F)c(-c3ccc(I)cc3)c2N)ccc1C(=O)NCc1ccccn1 [I-A-Q2-356] | I-A-Q2-356: log P (HCOOH): 2.93 |
| Cc1cc(-n2nc(C(F)(F)F)c(-c3cc(Cl)cc(Cl)c3)c2N)ccc1C(=O)N(C)C [I-A-Q2-056] | I-A-Q2-056: log P (HCOOH): 3.93 |
| Cc1cc(-n2nc(C(F)(F)F)c(-c3cc(Cl)cc(Cl)c3)c2N)ccc1C(=O)NC(CC(F)(F)F)C(F)(F)F (stereo not drawn) [I-A-Q2-217] | I-A-Q2-217: log P (HCOOH): 4.70 |
| Cc1cc(-n2nc(C(F)(F)F)c(-c3cc(Cl)cc(Cl)c3)c2N)ccc1C(=O)N(C)CC(F)(F)F [I-A-Q2-236] | I-A-Q2-236: log P (HCOOH): 4.51 |
| Cc1cc(-n2nc(C(F)(F)F)c(-c3cc(Cl)cc(Cl)c3)c2N)ccc1C(=O)NCC1CCCCC1 [I-A-Q2-263] | I-A-Q2-263: log P (HCOOH): 5.08 |
| Cc1cc(-n2nc(C(F)(F)F)c(-c3cc(Cl)cc(Cl)c3)c2N)ccc1C(=O)NCC(C)O (stereo not drawn) [I-A-Q2-262] | I-A-Q2-262: log P (HCOOH): 3.28 |
| Cc1cc(-n2nc(C(F)(F)F)c(-c3cc(Cl)cc(Cl)c3)c2N)ccc1C(=O)NC(CC(C)C)C(F)(F)F (stereo not drawn) [I-A-Q2-198] | I-A-Q2-198: log P (HCOOH): 5.40 |
| CC(NC(=O)c1cnc(-n2nc(C(F)(F)F)c(-c3cc(Cl)cc(Cl)c3)c2N)nc1C(F)(F)F)c1ccccn1 (stereo not drawn) [I-A-Q2-021] | I-A-Q2-021: log P (HCOOH): 3.48 |
| CCCCCNC(=O)c1ccc(-n2nc(C(F)(F)F)c(-c3cc(Cl)cc(Cl)c3)c2N)cc1C [I-A-Q2-237] | I-A-Q2-237: log P (HCOOH): 4.76 |
| CC(NC(=O)c1ccc(-n2nc(-c3ccccc3)c(-c3ccc(Cl)cc3)c2N)cc1)c1ccccc1 (stereo not drawn) [I-A-Q2-077] | I-A-Q2-077: log P (HCOOH): 4.17 |
| Cc1cc(-n2nc(C(F)(F)Oc3cc(Cl)ccc3Cl)c(-c3cc(Cl)cc(C(F)(F)F)c3)c2N)ccc1C(=O)NCC(F)(F)C(F)F [I-A-Q2-296] | I-A-Q2-296: log P (HCOOH): 5.14 |
| COc1cccc(C(F)(F)c2nn(-c3ccc(C(=O)NCC(F)(F)C(F)F)c(C)c3)c(N)c2-c2cc(Cl)cc(C(F)(F)F)c2)c1 [I-A-Q2-288] | I-A-Q2-288: log P (HCOOH): 4.40 |

same assay, conditions: HCOOH; Table 4, compounds of formula I-A-Q4

| Compound | log P (HCOOH) |
| --- | --- |
| N#Cc1ccc(-c2c(C(F)(F)F)nn(-c3ccc(Cl)cn3)c2N)cc1 [I-A-Q4-045] | I-A-Q4-045: log P (HCOOH): 4.11 |
| Nc1c(-c2ccccc2Cl)c(C(F)(F)F)nn1-c1ccc(Cl)cn1 [I-A-Q4-023] | I-A-Q4-023: log P (HCOOH): 4.57 |
| Nc1c(-c2cc(F)c(F)c(F)c2)c(C(F)(F)F)nn1-c1ccc(C(=O)O)cc1 [I-A-Q4-099] | I-A-Q4-099: log P (HCOOH): 3.32 |
| Nc1c(-c2cc(Cl)cc(Cl)c2)c(C(F)(F)F)nn1-c1ccc(C(=O)O)c(C(F)(F)F)c1 [I-A-Q4-115] | I-A-Q4-115: log P (HCOOH): 4.22 |
| Nc1c(-c2ccc(F)c(F)c2)c(C(F)(F)F)nn1-c1ccc(Cl)cn1 [I-A-Q4-050] | I-A-Q4-050: log P (HCOOH): 4.64 |

same assay, conditions: HPLC, reversed-phase C18, mobile phase with formic acid

| Compound | log P (HCOOH) |
| --- | --- |
| Cc1nn(-c2ccc(-n3cncn3)c(C#N)c2)c(N)c1-c1cc(F)ccc1F [I-A-Q1-061] | I-A-Q1-061: log P (HCOOH): 2.29 |
| Cc1nn(-c2ccc(-n3cncn3)c(C#N)c2)c(N)c1-c1ccc(F)cc1 [I-A-Q1-059] | I-A-Q1-059: log P (HCOOH): 2.30 |
| Cc1nn(-c2ccc(-n3cncn3)c(C#N)c2)c(N)c1-c1c(Cl)cccc1Cl [I-A-Q1-055] | I-A-Q1-055: log P (HCOOH): 2.47 |
| N#Cc1cc(-n2nc(C(F)(F)F)c(-c3cc(F)cc(Cl)c3)c2N)ccc1-n1cncn1 [I-A-Q1-037] | I-A-Q1-037: log P (HCOOH): 3.33 |
| Cc1nc(C)n(-c2ccc(-n3nc(C(F)(F)F)c(-c4cc(Cl)cc(Cl)c4)c3N)cc2C#N)n1 [I-A-Q1-083] | I-A-Q1-083: log P (HCOOH): 3.84 |
| N#Cc1cc(-n2nc(C(F)(F)F)c(-c3cc(Cl)cc(Cl)c3)c2N)ccc1-n1cc(F)cn1 [I-A-Q1-092] | I-A-Q1-092: log P (HCOOH): 4.40 |
| N#Cc1cc(-n2nc(C(F)(F)F)c(-c3c(F)cc(F)cc3F)c2N)ccc1-n1cncn1 [I-A-Q1-034] | I-A-Q1-034: log P (HCOOH): 3.10 |
| N#Cc1cnn(-c2ccc(-n3nc(C(F)(F)F)c(-c4cc(Cl)cc(Cl)c4)c3N)cc2C#N)c1 [I-A-Q1-079] | I-A-Q1-079: log P (HCOOH): 4.28 |
| N#Cc1cc(-n2nc(C3CC3)c(-c3ccc(Cl)cc3)c2N)ccc1-n1cncn1 [I-A-Q1-064] | I-A-Q1-064: log P (HCOOH): 3.31 |
| N#Cc1ccc(-c2c(C(F)(F)F)nn(-c3ccc(-n4cncn4)c(C#N)c3)c2N)cc1 [I-A-Q1-047] | I-A-Q1-047: log P (HCOOH): 2.64 |

same assay, conditions: HPLC, reversed-phase C18, mobile phase with formic acid; read-out: log P (HCOOH)

| Compound | chromatographic logP |
| --- | --- |
| Nc1c(-c2cc(Cl)cc(Cl)c2)c(C(F)(F)F)nn1-c1ncc(C(=O)NCc2ccccn2)c(C(F)(F)F)n1 [I-A-Q2-020, N-(Pyridin-2-ylmethyl)-2-[5-amino-4-(3,5-dichlorophenyl)-3-trifluoromethylpyrazol-1-yl]-4-trifluoromethylpyrimidine-5-carboxamide] | 3.54 |
| Cc1cc(-n2nc(C(F)(F)F)c(-c3cc(Cl)cc(Cl)c3)c2Br)ccc1C(=O)NC(C)C(F)(F)F (stereo not drawn) [I-A-Q2-024, 4-[5-Bromo-4-(3,5-dichlorophenyl)-3-trifluoromethylpyrazol-1-yl]-2-methyl-N-(2,2,2-trifluoro-1-mmethylethyl)benzamide] | 5.53 |
| COC(=O)c1ccc(-n2nc(C(F)(F)F)c(-c3cc(Cl)cc(Cl)c3)c2N)cc1C [I-A-Q4-011, Methyl 4-[5-amino-4-(3,5-dichlorophenyl)-3-trifluoromethylpyrazol-1-yl]-2-methylbenzoate] | 5.08 |

system: larvae of the mustard beetle (Phaedon cochleariae); assay: Phaedon cochleariae test (PHAECO spray treatment); assay type: in vivo; details: Phaedon cochleariae, foliar, 168 h; application rate 500 g/ha, Chinese cabbage leaf discs sprayed, after 7 days; read-out: effect in % (beetle larvae killed)
Protocol: Phaedon cochleariae Test (PHAECO Spray Treatment)
Solvent: 78.0 parts by weight of acetone • • 1.5 parts by weight of dimethylformamide Emulsifier: 0.5 part by weight of alkylaryl polyglycol ether
To produce a suitable preparation of active compound, 1 part by weight of active compound is mixed with the stated amounts of solvent and emulsifier, and the concentrate is diluted with emulsifier-containing water to the desired concentration.
Discs of Chinese cabbage (Brassica pekinensis) are sprayed with an active compound preparation of the desired concentration and, after drying, populated with larvae of the mustard beetle (Phaedon cochleariae).
After 7 days, the effect in % is determined. 100% means that all beetle larvae have been killed; 0% means that none of the beetle larvae have been killed.

| Compound | pest or weed control at 500 g/ha |
| --- | --- |
| Nc1c(-c2cc(Cl)cc(Cl)c2)c(C(F)(F)F)nn1-c1ncc(C(=O)NCc2ccccn2)c(C(F)(F)F)n1 [I-A-Q2-020, N-(Pyridin-2-ylmethyl)-2-[5-amino-4-(3,5-dichlorophenyl)-3-trifluoromethylpyrazol-1-yl]-4-trifluoromethylpyrimidine-5-carboxamide] | > 80% |
| Cc1cc(-n2nc(C(F)(F)F)c(-c3cc(Cl)cc(Cl)c3)c2Br)ccc1C(=O)NC(C)C(F)(F)F (stereo not drawn) [I-A-Q2-024, 4-[5-Bromo-4-(3,5-dichlorophenyl)-3-trifluoromethylpyrazol-1-yl]-2-methyl-N-(2,2,2-trifluoro-1-mmethylethyl)benzamide] | > 80% |
| COC(=O)c1ccc(-n2nc(C(F)(F)F)c(-c3cc(Cl)cc(Cl)c3)c2N)cc1C [I-A-Q4-011, Methyl 4-[5-amino-4-(3,5-dichlorophenyl)-3-trifluoromethylpyrazol-1-yl]-2-methylbenzoate] | > 80% |

same assay, conditions: application rate 500 g/ha, Chinese cabbage leaf discs sprayed, after 7 days

| Compound | effect in % (beetle larvae killed) |
| --- | --- |
| Cc1cc(-n2nc(C(F)(F)F)c(-c3ccccc3Cl)c2N)ccc1C(=O)NCc1ncccn1 [I-A-Q2-414] | 100% |
| Cc1cc(-n2nc(C(F)(F)F)c(-c3ccc(Cl)cc3Cl)c2N)ccc1C(=O)NC(C)c1ccccn1 (stereo not drawn) [I-A-Q2-412] | 100% |
